# Measurements from ChEMBL document CHEMBL1201862, “PubChem BioAssay data set” (2004).
#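 Following 48 hours of exposure in 96-well plates, responses at five concentrations were used to interpolate endpoints linearly. The concentration for 50% growth inhibition is given as GI50.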 The source made the active and inactive calls. No stated cut-off is given here; in the data, active = GI50 up to about 1.1 µM and inactive = higher.
# Columns and labels:
# Experiment in all cases: DTP human tumour cell line panel, 48 h
# EKVX = tested on: EKVX
# SK-OV-3 = tested on: SK-OV-3
# UACC-62 = tested on: UACC-62
# SW-620 = tested on: SW-620
# HOP-92 = tested on: HOP-92
# SF-295 = tested on: SF-295
# COLO 205 = tested on: COLO 205
# SNB-75 = tested on: SNB-75
# TK-10 = tested on: TK-10
# OVCAR-5 = tested on: OVCAR-5
# OVCAR-3 = tested on: OVCAR-3
# Malme-3M = tested on: Malme-3M
# NCI-H460 = tested on: NCI-H460
# K562 = tested on: K562
# CCRF-CEM = tested on: CCRF-CEM
# LOX IMVI = tested on: LOX IMVI
# NCI-H522 = tested on: NCI-H522
# RXF 393 = tested on: RXF 393
# SK-MEL-5 = tested on: SK-MEL-5
# NCI-H226 = tested on: NCI-H226
Compound,GI50 (EKVX),GI50 (SK-OV-3),GI50 (UACC-62),GI50 (SW-620),GI50 (HOP-92),GI50 (SF-295),GI50 (COLO 205),GI50 (SNB-75),GI50 (TK-10),GI50 (OVCAR-5),GI50 (OVCAR-3),GI50 (Malme-3M),GI50 (NCI-H460),GI50 (K562),GI50 (CCRF-CEM),GI50 (LOX IMVI),GI50 (NCI-H522),GI50 (RXF 393),GI50 (SK-MEL-5),GI50 (NCI-H226)
C=CCN(N=O)C(=O)ON1C(=O)CCC1=O,> 100 µM (inactive),> 100 µM (inactive),> 100 µM (inactive),> 100 µM (inactive),> 100 µM (inactive),> 100 µM (inactive),> 100 µM (inactive),75.9 µM (inactive),> 100 µM (inactive),0.0681 µM (active),> 100 µM (inactive),> 100 µM (inactive),> 100 µM (inactive),> 100 µM (inactive),85.9 µM (inactive),> 100 µM (inactive),64.7 µM (inactive),> 100 µM (inactive),,
CCC(C)c1cccc(C)c1NC(=O)C(=O)Cc1nc2ccccc2s1 (centres undefined),> 100 µM (inactive),> 100 µM (inactive),> 100 µM (inactive),> 100 µM (inactive),> 100 µM (inactive),> 100 µM (inactive),> 100 µM (inactive),> 100 µM (inactive),> 100 µM (inactive),> 100 µM (inactive),> 100 µM (inactive),> 100 µM (inactive),> 100 µM (inactive),> 100 µM (inactive),> 100 µM (inactive),> 100 µM (inactive),> 100 µM (inactive),> 100 µM (inactive),> 100 µM (inactive),
O=C1Oc2ccccc2C(=O)/C1=C/NC(=S)NCc1ccccc1,> 100 µM (inactive),> 100 µM (inactive),,99.1 µM (inactive),> 100 µM (inactive),55.6 µM (inactive),> 100 µM (inactive),16.9 µM (inactive),6.34 µM (inactive),> 100 µM (inactive),> 100 µM (inactive),,70 µM (inactive),,,69.3 µM (inactive),,,69.5 µM (inactive),> 100 µM (inactive)
CC(Br)C(=O)c1ccc2cc(Br)c3ccccc3c2c1 (centres undefined),14.4 µM (inactive),16.8 µM (inactive),15.4 µM (inactive),6.01 µM (inactive),16.4 µM (inactive),16.4 µM (inactive),,15.2 µM (inactive),19 µM (inactive),17 µM (inactive),12.1 µM (inactive),15.1 µM (inactive),16 µM (inactive),4.18 µM (inactive),2.45 µM (inactive),6.79 µM (inactive),3.97 µM (inactive),15.4 µM (inactive),14 µM (inactive),
Nc1ccccc1N,,> 100 µM (inactive),> 100 µM (inactive),> 100 µM (inactive),> 100 µM (inactive),> 100 µM (inactive),> 100 µM (inactive),> 100 µM (inactive),> 100 µM (inactive),> 100 µM (inactive),> 100 µM (inactive),> 100 µM (inactive),> 100 µM (inactive),> 100 µM (inactive),21.1 µM (inactive),> 100 µM (inactive),15.5 µM (inactive),> 100 µM (inactive),> 100 µM (inactive),
CCn1cc(/C=C/C(C)c2cn(CC)c(=O)[nH]c2=O)c(=O)[nH]c1=O (centres undefined),> 100 µM (inactive),> 100 µM (inactive),> 100 µM (inactive),> 100 µM (inactive),11.3 µM (inactive),> 100 µM (inactive),> 100 µM (inactive),84.7 µM (inactive),> 100 µM (inactive),> 100 µM (inactive),> 100 µM (inactive),> 100 µM (inactive),> 100 µM (inactive),> 100 µM (inactive),> 100 µM (inactive),> 100 µM (inactive),> 100 µM (inactive),> 100 µM (inactive),> 100 µM (inactive),
OC1OC(c2ccco2)C(F)(F)C(F)(F)C1(F)F (centres undefined),81.7 µM (inactive),> 100 µM (inactive),> 100 µM (inactive),> 100 µM (inactive),38 µM (inactive),68.7 µM (inactive),82.6 µM (inactive),,> 100 µM (inactive),> 100 µM (inactive),> 100 µM (inactive),51.8 µM (inactive),> 100 µM (inactive),> 100 µM (inactive),21.9 µM (inactive),> 100 µM (inactive),,> 100 µM (inactive),35.2 µM (inactive),> 100 µM (inactive)
N#CCCN(CCC#N)c1ccc(/C=C2\N=C(c3ccccc3)N(NC(N)=S)C2=O)cc1,> 100 µM (inactive),> 100 µM (inactive),> 100 µM (inactive),> 100 µM (inactive),> 100 µM (inactive),> 100 µM (inactive),> 100 µM (inactive),,> 100 µM (inactive),> 100 µM (inactive),> 100 µM (inactive),> 100 µM (inactive),> 100 µM (inactive),> 100 µM (inactive),> 100 µM (inactive),> 100 µM (inactive),,> 100 µM (inactive),> 100 µM (inactive),> 100 µM (inactive)
O=C(NS(=O)(=O)Nc1ccc(Cl)cc1)OCc1ccc(Cl)cc1Cl,,21.1 µM (inactive),14 µM (inactive),33.3 µM (inactive),24.7 µM (inactive),17.2 µM (inactive),16.7 µM (inactive),35.7 µM (inactive),16 µM (inactive),24.2 µM (inactive),17.7 µM (inactive),19.1 µM (inactive),13.4 µM (inactive),28.4 µM (inactive),57 µM (inactive),22.6 µM (inactive),,,17.8 µM (inactive),
Clc1ccc(Nc2nnc(CCCCCCCCc3nnc(Nc4ccc(Cl)cc4)o3)o2)cc1,39 µM (inactive),35.7 µM (inactive),21.7 µM (inactive),48.5 µM (inactive),23.8 µM (inactive),35.8 µM (inactive),39.9 µM (inactive),82.2 µM (inactive),55.8 µM (inactive),23.7 µM (inactive),,11 µM (inactive),33.9 µM (inactive),7.35 µM (inactive),,,21.5 µM (inactive),,23.1 µM (inactive),46 µM (inactive)
COc1cc(C2C3=C(COC3=O)OC(C)(C)Oc3cc4c(cc32)OCO4)cc(OC)c1O (centres undefined),4.12 µM (inactive),0.757 µM (active),3.27 µM (inactive),0.608 µM (active),0.392 µM (active),0.232 µM (active),2.44 µM (inactive),,,3.58 µM (inactive),0.437 µM (active),0.746 µM (active),0.643 µM (active),0.383 µM (active),1.36 µM (inactive),0.706 µM (active),0.244 µM (active),0.122 µM (active),0.246 µM (active),
CCOC(=O)c1sc2nc(SC)nc(Nc3ccc4c(c3)OCO4)c2c1N,31.9 µM (inactive),,25.1 µM (inactive),4.34 µM (inactive),17.4 µM (inactive),16 µM (inactive),> 100 µM (inactive),,30.9 µM (inactive),> 100 µM (inactive),37.4 µM (inactive),29.6 µM (inactive),> 100 µM (inactive),81.1 µM (inactive),50.7 µM (inactive),> 100 µM (inactive),46.7 µM (inactive),10.9 µM (inactive),44.1 µM (inactive),71.3 µM (inactive)
CCOC(=O)C1c2[nH]c3ccccc3c2CCN1C(=O)c1ccco1 (centres undefined),> 10 µM (inactive),> 10 µM (inactive),> 10 µM (inactive),> 10 µM (inactive),> 10 µM (inactive),> 10 µM (inactive),> 10 µM (inactive),> 10 µM (inactive),> 10 µM (inactive),,> 10 µM (inactive),> 10 µM (inactive),,> 10 µM (inactive),> 10 µM (inactive),,,,> 10 µM (inactive),
O=c1c2ncn(CCCl)c2n(-c2ccccc2)c(=S)n1-c1ccccc1,> 100 µM (inactive),> 100 µM (inactive),> 100 µM (inactive),> 100 µM (inactive),> 100 µM (inactive),> 100 µM (inactive),> 100 µM (inactive),,> 100 µM (inactive),> 100 µM (inactive),> 100 µM (inactive),> 100 µM (inactive),> 100 µM (inactive),86.9 µM (inactive),> 100 µM (inactive),> 100 µM (inactive),> 100 µM (inactive),> 100 µM (inactive),> 100 µM (inactive),> 100 µM (inactive)
NC(=O)Nc1c([N+](=O)[O-])cc(C(F)(F)F)cc1[N+](=O)[O-],> 100 µM (inactive),,19.4 µM (inactive),51.2 µM (inactive),40.5 µM (inactive),> 100 µM (inactive),34.5 µM (inactive),,> 100 µM (inactive),> 100 µM (inactive),28.8 µM (inactive),,48.1 µM (inactive),56.2 µM (inactive),> 100 µM (inactive),44.7 µM (inactive),32.6 µM (inactive),> 100 µM (inactive),49.3 µM (inactive),> 100 µM (inactive)
Cn1c(=O)c2nc[nH]c2n(C)c1=O [THEOPHYLLINE],> 100 µM (inactive),,,> 100 µM (inactive),> 100 µM (inactive),,> 100 µM (inactive),,> 100 µM (inactive),> 100 µM (inactive),> 100 µM (inactive),> 100 µM (inactive),> 100 µM (inactive),> 100 µM (inactive),> 100 µM (inactive),> 100 µM (inactive),> 100 µM (inactive),,> 100 µM (inactive),> 100 µM (inactive)
